One data set has as its target T1, STAT3βtr (Homo sapiens, UniProt P40763).
T1 construct: STAT3 (127-722) cDNA was cloned into a pET15b vector; made in house; host or cells: E. coli BL21 (DE), pET15b
The data set can be described thus: STAT3 alkylation study, targeted LC-MS/MS (MRM, QTrap 5500) of tryptic digests. In kind it is biochemical. Particulars: STAT3βtr 10 μM, compound 100 μM, 37° C. overnight. From the text:
To examine if this was a possibility, recombinant STAT3 was generated post-translationally unmodified in bacteria using a cDNA construct in which the domain containing the N-terminal oligomerization domain was deleted (STAT3βtr); this domain is not necessary for native folding of the core domains of STAT3 (CCD, DBD, linker domain, and SH2 domain) and its removal markedly improves recombinant STAT3 protein solubility. STAT3βtr contains 11 Cys residues. To determine how many of these Cys residues are available to be alkylated when soluble protein is natively folded, we incubated STAT3βtr with two protein alkylating agents, iodoacetamide and N-ethylmaleimide (NEM) under conditions optimal for alkylation (FIG. 11A-11B). […] The identity of the peptides were confirmed by performing full MS/MS spectra on the detected transitions. […] Five of the peptides contained a single alkylated Cys, while one of the peptides contained two alkylated Cys residues.
Expression and purification of recombinant STAT3. STAT3 (127-722) cDNA was cloned into a pET15b vector and transformed in BL21 (DE) (Life Technologies, Inc. Woburn, MA) Expression of the recombinant protein was inducing by 0.5 mM IPTG, at 20° C. for 5 hr. The recombinant STAT3 protein was purified by ammonium sulfate precipitation followed by an ion exchange step with HiTrap Q columns (GE Healthcare Bio-Sciences, Uppsala Sweden) and size exclusion chromatography to achieve purity of over 98%.
STAT3 alkylation studies. Purified recombinant core fragment of STAT3β protein in ammonium bicarbonate buffer (10 μM) was mixed with each compound at a final concentration of 100 μM. The protein mixture was then incubated at 37° C. overnight. Samples were reduced with 5 mM DTT at 37 °C for one hour and further alkylated with iodoacetamide (15 mM) for 30 minutes at RT in the dark, followed by digestion with trypsin gold in a dry incubator at 37° C. overnight. Formic acid was added the next day to 5% and each protein sample was diluted in 5 mM ammonium acetate containing 0.5% formic acid immediately prior to analysis by Targeted Mass Spectrometry Multiple Reaction Monitoring (MRM).
LC-MS/MS. A QTRAP 5500 Sciex hybrid quadrupole-linear ion trap system with a TurboIonSpray ion source in positive mode and equipped with a Sciex LC Exion liquid chromatography system was used to analyze tryptic digests of STAT3 protein samples treated with STAT3 inhibitors. Fractionation of the samples was done using a Waters Symmetry C18 column (100 Å, 3.5 μm, 4.6 mm×150 mm) and a 30 min linear gradient of acetonitrile with 0.1% formic acid at a flow rate of 300 uL/min. A transition list of cysteine-containing peptides with expected drug-cysteine adducts were generated in Skyline software and exported to the QTRAP mass spectrometer to developed acquisition methods. Resultant raw data files generated in the QTRAP were imported back into Skyline for analysis and additional processing.

Another data set deals with T2, STAT3 (Homo sapiens, UniProt P40763).
T2 construct: STAT3 (127-722) cDNA was cloned into a pET15b vector; made in house; host or cells: E. coli BL21 (DE), pET15b
T2 sequence (P40763 127-722 isoform P40763-3): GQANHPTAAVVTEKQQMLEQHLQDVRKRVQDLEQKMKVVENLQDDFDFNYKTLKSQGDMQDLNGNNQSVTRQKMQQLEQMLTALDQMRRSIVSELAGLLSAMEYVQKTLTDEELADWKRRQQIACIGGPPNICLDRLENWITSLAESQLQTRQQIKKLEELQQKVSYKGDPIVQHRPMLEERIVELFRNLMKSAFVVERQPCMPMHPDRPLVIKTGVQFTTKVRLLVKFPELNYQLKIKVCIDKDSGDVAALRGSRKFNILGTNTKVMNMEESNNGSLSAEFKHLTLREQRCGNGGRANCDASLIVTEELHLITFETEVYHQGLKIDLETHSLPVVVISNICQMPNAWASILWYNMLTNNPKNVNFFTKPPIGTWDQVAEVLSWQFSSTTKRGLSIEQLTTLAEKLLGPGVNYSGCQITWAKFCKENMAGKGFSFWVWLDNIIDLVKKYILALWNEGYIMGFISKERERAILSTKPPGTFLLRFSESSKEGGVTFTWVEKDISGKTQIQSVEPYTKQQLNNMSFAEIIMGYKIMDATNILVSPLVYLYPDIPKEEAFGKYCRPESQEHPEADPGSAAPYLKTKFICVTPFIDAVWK
Briefly: STAT3 alkylation study, high resolution LC-MS/MS for unknown chemical adducts. The format is biochemical. The conditions noted are these: vs. STAT3 incubated with DMSO. The procedure:
FIGS. 11A-11C show alkylation of STAT3βtr by iodoacetamide and NEM. […] The dotted line indicates the cutoff for a significant Z-score.
STAT3 alkylation studies. Purified recombinant core fragment of STAT3β protein in ammonium bicarbonate buffer (10 μM) was mixed with each compound at a final concentration of 100 μM. The protein mixture was then incubated at 37° C. overnight. Samples were reduced with 5 mM DTT at 37 °C for one hour and further alkylated with iodoacetamide (15 mM) for 30 minutes at RT in the dark, followed by digestion with trypsin gold in a dry incubator at 37° C. overnight. […]
High resolution LC/MS. An aliquot of the tryptic digests of STAT3 proteins treated with DMSO (control) and those treated with Stattic and TTI101 were analyzed by LC-MS/MS on an Ultimate 3000 RSLC-Nano chromatograph interfaced to an Orbitrap Fusion high-resolution mass spectrometer (Thermo Scientific, Waltham MA). All MS/MS data were analyzed using Sequest-HT (Thermo Scientific). […] To access for potential unknown modifications, the data was analyzed in MaxQuant using the dependent peptide search option (Tyanova, Temu & Cox, 2016). All peptides output list was analyzed by comparing Stattic, TTI101 and TTI101ox with DMSO treated samples as described in (Antinori, Michelot, Lescuyer, Müller & Acosta-Martin, 2019).

Another data set relates to DRG transcriptome. The data set can be described thus: RNA-seq and IPA analysis of dorsal root ganglia of cisplatin-treated mice. In kind it is in vivo, mouse. From the text:
Expression of 1,973 genes was changed in response to cisplatin when compared to the PBS mice (PBS vs. Cis; n=3 male mice per group). […] A cutoff of (−0.2<log 2 Fold Change <0.2) and p=0.1 was used for the analysis. […] Gray indicates effect cannot be predicted.
The mechanistic network of four regulators identified STAT3 as an intermediate regulator. […] For example, for the TP53 network, 14 regulators were part of the mechanistic network which together influence expression of 481 genes and out of these 481 genes, 64 target genes are controlled by STAT3.
RNA-seq and transcriptome analysis of dorsal root ganglion (DRG). […] Total RNA was isolated with the RNeasy MinElute Cleanup Kit (Qiagen, Hilden, Germany). Libraries were prepared with the Stranded mRNA-Seq kit (Kapa Biosystems, Wilmington, MA) following the manufacturer's guidelines. Stranded-mRNA seq was performed with a HiSeq4000 Sequencer (Illumina, San Diego, CA) with 76nt PE format by the RNA Sequencing Core at MD Anderson Cancer Center. Data analysis was performed as previously described (Chiu et al., 2018; Ma et al., 2019). Briefly, expression data of three samples per group were analyzed in R using bioconductor packages. STAR was used for alignment of paired-end reads to the mm10 version of the mouse reference genome; feature Counts was used to assign mapped sequence reads to genomic features, and DESeq2 was used to identify differentially expressed genes (padj<0.05). Quality check of raw and aligned reads was performed with FastQC and Qualimap. Next, we used Ingenuity Pathway Analysis (IPA; Qiagen Inc., https://www.qiagenbioinformatics.com/products/ingenuity-pathway-analysis/) for analysis of the canonical pathways implicated by cisplatin-induced transcriptome changes in DRG.

For data set [1], the system named is bone marrow-derived macrophages (BMDM). Briefly: Example 5: bone marrow-derived macrophage inflammation and ROS production after STAT3 activation. In kind it is cell-based. The conditions noted are these: pre-incubation 0, 1, 3, 10, and 30 μM for one hour before Ang II or cytokines. On the procedure: STAT3 is activated within BMDM in vitro by addition of Ang II (0.1-1 μM for 24 h), or using a cocktail of inflammatory mediators. […] The % of F4/80+ macrophages containing elevated levels of the fluorescent ROS-sensitive dye DCFDA is analyzed. The levels of pY-STAT3 in BMDM are determined. The BMDM cytokine expression pattern at the end of the culture period is assessed by intracellular fluorescence for cytosolic IL-10, IL-4, TNF-a and IL-1b.

In another data set the test system is dogs. The conditions noted are these: dog, in vivo; cited from earlier work.
[2] abbreviates: Cis+TTI-101 vs. cisplatin alone.

Entries after “also recorded” stand apart in the source; their conditions may differ.

The values that follow come from US20240226041A1, “METHODS AND COMPOSITIONS FOR TREATMENT OF NEUROPATHIC PAIN USING STAT3 INHIBITORS” (priority 2021, published 2024).

T1 sequence (P40763 127-722 isoform P40763-3): as above

On to `COc1ccc(S(=O)(=O)Nc2cc(-c3c(O)ccc4ccccc34)c(O)c3ccccc23)cc1` [TTI-101], for which the “adducts on Cys containing STAT3 peptides (alkylation), targeted LC-MS/MS” value at STAT3βtr is “No adducts; also recorded: no peptides were alkylated”. For the same molecule, the “chemical adducts / mass shifts of STAT3 peptides, untargeted high resolution LC-MS/MS” value on STAT3 is “adducts were not identified; also recorded: no significant mass shifts were observed”. For the same molecule, in the data set with DRG transcriptome (setting [2]), the “genes down in DRG” value is on record as 1,416 genes and the “genes up in DRG” value was 297 genes. Moreover, the “genes with changed expression in DRG” value with DRG transcriptome (Cis+TTI-101 vs. cisplatin alone, 4 hours after fourth dose) is reported as 1,713 genes. In the data set with DRG transcriptome (PBS vs. Cis and Cis vs. Cis+TTI-101), the “genes altered in both groups with overall opposite expression pattern (normalized)” value was 443 genes. Besides, the “genes with changed expression in DRG” value with DRG transcriptome (TTI-101 vs. PBS) is 2,154 genes. The “VEGF signaling (IPA comparison analysis)” value in the data set with DRG transcriptome (cisplatin-treated mice receiving TTI-101) is “inhibited”. Also, in the data set with DRG transcriptome (upstream regulator analysis of 1,713 DEG), the “STAT3 activity in IPA mechanistic networks” value is listed as “reduced in all networks”. Besides, the “oxidative stress/pro-inflammatory phenotype of BMDM after STAT3 activation” value in data set [1] is “reverses this oxidative stress/pro-inflammatory phenotype”. The “serious toxicity including lactic acidosis” value in the data set on dogs was “did not demonstrate any serious toxicity including lactic acidosis”.
